Measured values reported in ChEMBL document CHEMBL5149990, “New Protocol-Guided Exploitation of a Lysosomal Sulfatase Inhibitor to Suppress Cell Growth in Glioblastoma Multiforme” (J Med Chem, 2021).
Active and inactive are the calls of the source. No cut-off for these calls is given here.

Legend:
Homo sapiens [1] = species: Homo sapiens; assay: Binding affinity to lysosome sulfatase (unknown origin) assessed as Km; assay type: subcellular
Homo sapiens [2] = species: Homo sapiens; assay: Binding affinity to sulfatase in human liver S9 fraction; assay type: subcellular
[3] = Drug localization in lysosome of human T98G cells by Lyso-Tracker Red based confocal laser scanning microscopy; assay type: ADME, cell-based
Homo sapiens [4] = species: Homo sapiens; assay: Binding affinity to lysosome sulfatase (unknown origin) assessed as Vmax; assay type: subcellular
T98G [5] = assay: Binding affinity to sulfatase in human T98G cells assessed as increase in fluorescence intensity at 40 uM by confocal fluorescence microscopic analysis; assay type: cell-based
T98G [6] = assay: Cytotoxicity against human T98G cells assessed as reduction in cell viability incubated for 4 hrs by MTT assay; assay type: toxicity, cell-based
T98G [7] = assay: Binding affinity to sulfatase in human T98G cells assessed as reduction in fluorescence intensity at 125 uM in presence of 2-(2-Morpholinoethyl)-6-(((2S,3R,4S,5S,6R)-3,4,5-trihydroxy-6-(hydroxymethyl)tetrahydro-2H-pyran-2-yl)oxy)-1H-benzo[de]-isoquinoline-1,3(2H)-dione by confocal fluorescence microscopic analysis; assay type: cell-based
[8] = Inhibition of lysosome sulfatase (unknown origin) assessed as reduction in fluorescence intensity using 2-(2-Morpholinoethyl)-6-(((2S,3R,4S,5S,6R)-3,4,5-trihydroxy-6-(hydroxymethyl)tetrahydro-2H-pyran-2-yl)oxy)-1H-benzo[de]-isoquinoline-1,3(2H)-dione as substrate incubated for 60 mins by fluorescence based analysis; assay type: subcellular, Homo sapiens
T98G [9] = assay: Cytotoxicity against human T98G cells assessed as reduction in cell viability at 3.5 to 350 uM incubated for 48 hrs by MTT assay relative to control; assay type: toxicity, cell-based; conditions: dose 3.5-350 µM

Question: Which Km (Homo sapiens [1]) does the source give for `O=C1c2cccc3c(O[C@@H]4O[C@H](CO)[C@@H](O)[C@H](O)[C@H]4O)ccc(c23)C(=O)N1CCN1CCOCC1` here?
Answer: 21.6 µM

Question: And the Activity (Homo sapiens [2])?
Answer: Active

Question: What about the Drug uptake [3] of the same molecule?
Answer: Active

Question: What about the Vmax (Homo sapiens [4]) of the same molecule?
Answer: 70.9 nmol/min/mg

Question: And the Activity (T98G [5])?
Answer: Active

Question: And the Activity (T98G [6])?
Answer: Non-Toxic

Question: Which Activity (T98G [7]) does the source give for `CC1(C)[C@H](C(=O)O)N2C(=O)C[C@H]2S1(=O)=O` [SULBACTAM] here?
Answer: Active

Question: What about the IC50 [8] of the same molecule?
Answer: 3.5 µM

Question: And the Activity (T98G [9])?
Answer: 34%
